{"source": "patent US20030143548A1", "about": "“Predicting patient responsiveness to serotonergic therapy” (priority 2002, published 2003)", "key": {"[1]": {"tested_on": "patients with diarrhea-predominant IBS", "conditions": "cited from earlier work"}, "[2]": {"tested_on": "patients with diarrhea-predominant IBS", "assay": "Scintigraphic measurement of colonic transit (colonic geometric center at 24 hours) at baseline and after 6 weeks of alosetron", "type": "in vivo, human", "conditions": "for change in colonic geometric center (ΔGC) at 24 hr: 6 weeks vs baseline, negative = slower transit", "description": "Colonic transit can be monitored by known methods (Camilleri M. and Zinsmeister A. R., Gastroenterology 103:36-42 (1992); and Camilleri M. et al., Dig. Dis. Sci. 36:609-615 (1991)). In general, labeled (e.g., ^111In) pellets can be delivered to the colon by means of a methacrylate-coated, delayed-release capsule. Simultaneously, labeled (e.g., ^99mTc) pellets can be ingested in a scrambled egg, toast, and milk meal to facilitate measurement of gastric and small bowel transit. A large field gamma camera (e.g., GE 500, General Electric, Milwaukee, Wis.) with a medium energy parallel hole collimator can be used to obtain images. Typically, images are obtained with subjects in the erect position. A variable region of interest (ROI) program can be used to measure colonic transit, with abdominal images obtained at periodic intervals (e.g.,4, 6, 8, 24, 32, and 48 hours pre- or post-treatment. The amount of label can be determined from the abdominal images in four colonic regions: the ascending, transverse, descending, and combined sigmoid and rectum regions. These counts may be corrected for isotope decay and tissue attenuation, as described in Camilleri et al. (1991) and Camilleri and Zinsmeister (1992), referenced above. The colonic geometric center is the weighted average of counts in the four different colonic regions [ascending (AC), transverse (TC), descending (DC), rectosigmoid (RS) and stool]:\n(% AC×1+% TC×2+% DC×3+% RS×4+% stool×5)/100=geometric center\nA high geometric center implies faster colonic transit, while a reduction of geometric center with treatment implies a retardation of colonic transit.\nThirty patients with diarrhea-predominant IBS associated were studied. Gastrointestinal and colonic transit were performed during a baseline period and during the last week of a 6-week therapeutic trial with alosetron 1 mg twice daily (b.i.d.). Demographic data of the original 30 participants are as follows: mean age 43.2±3y (females 46±4y, males 40±4y); mean duration of IBS 11.2±2.0y (females 9.2±2.3y and males 13.1±3.2y). Twenty-three of the 30 patients agreed to participate in an evaluation of the influence of the genotype of the promoter region of the 5-HTTP gene. The demographics, gender, and duration of illness in the three groups of patients according to 5-HTTP genotype are shown in the table below.\nAn established scintigraphic method was used as referenced above. Briefly, ^111In pellets were delivered to the colon by means of a methacrylate-coated, delayed-release capsule. Simultaneously, ^99mTc pellets were ingested in a scrambled egg, toast, and milk meal (218 kcal) to facilitate measurement of gastric and small bowel transit. Subjects ingested standardized meals for lunch and dinner. A variable region of interest (ROI) program was used to measure colonic transit. Abdominal images at 4, 6, 8, 24, 32, and 48 hours were obtained using a large field of view gamma camera (GE 500, General Electric, Milwaukee, Wis.) with a medium energy parallel hole collimator. All images were obtained with the subjects in the erect position. Radioscintigraphic markers were placed for reference on the anterior ends of the iliac crests. Anterior and posterior images were obtained with the camera positioned over the abdomen. This facilitated subsequent correction of radioisotopic counts for tissue attenuation.\nThe counts in four colonic regions were determined: the ascending, transverse, descending, and combined sigmoid and rectum regions. These counts were corrected for isotope decay and tissue attenuation, as referenced above. The primary endpoint of investigation was the colonic geometric center at 24 hours. The colonic geometric center is the weighted average of counts in the four different colonic regions [ascending (AC), transverse (TC), descending (DC), rectosigmoid (RS) and stool]:\nThus, a high geometric center implies faster colonic transit, while a reduction of geometric center with treatment implies a retardation of colonic transit. […]"}, "[3]": {"conditions": "by gender; cited from earlier work"}, "[4]": {"conditions": "females, alosetron 1 mg b.i.d., 6 weeks"}, "[5]": {"conditions": "males, alosetron 1 mg b.i.d., 6 weeks"}}, "data": [{"smiles": "Cc1[nH]cnc1CN1CCc2c(c3ccccc3n2C)C1=O", "note": "[alosetron]", "values": [{"measurement": "adequate relief of IBS pain and discomfort and normalization of bowel function", "setting": "[1]; clinical trials, women with diarrhea-predominant IBS", "result": "beneficial effect"}, {"measurement": "effect on colonic transit in patients with diarrhea-predominant IBS", "setting": "[1]; greater effect in females than males", "result": "significantly prolonged"}, {"measurement": "number of females in whom there was no effect on colonic transit", "setting": "[2]; [4]", "result": 2}, {"measurement": "number of patients with retardation of colonic transit greater than the clinically significant threshold of 1.14 colonic regions", "setting": "[2]; [4]", "result": "Nine"}, {"measurement": "change in colonic geometric center (ΔGC) at 24 hr", "setting": "[2]; females, alosetron 1 mg b.i.d., p=0.005 vs males", "result": "−1.45±0.25", "unit": "geometric center units"}, {"measurement": "colonic transit response by 5-HTTP promoter genotype (change of 1.14 units in ΔGC24h, FIG. 2)", "setting": "[2]; genotype groups after treatment with alosetron", "result": "a greater response was observed in those with the long polymorphism"}, {"measurement": "proportion of high responders (slowing of colonic transit by more than 1.14 regions)", "setting": "[2]; heterozygous 5-HTTP promoter genotype group", "result": "2 of 11"}, {"measurement": "proportion of high responders (slowing of colonic transit by more than 1.14 regions)", "setting": "[2]; long variant homozygous 5-HTTP promoter genotype group, Fisher's exact test p=0.024 vs heterozygous", "result": "6 of 8"}, {"measurement": "colonic transit response by 5-HTTP promoter genotype", "setting": "[2]; long/long homozygous vs long/short heterozygous patients, p=0.039", "result": "significantly higher response in long variant/long variant homozygous"}, {"measurement": "males with retardation of colonic transit at 24 hours equal to or greater than the mean change in females (1.45 geometric center units)", "setting": "[2]; [5]", "result": "2 of 15"}, {"measurement": "number of patients with retardation of colonic transit greater than the clinically significant threshold of 1.14 colonic regions", "setting": "[2]; [5]", "result": 3}, {"measurement": "change in colonic geometric center (ΔGC) at 24 hr", "setting": "[2]; males, alosetron 1 mg b.i.d.", "result": "−0.32±0.27", "unit": "geometric center units"}, {"measurement": "colonic geometric centers at 24 hours following treatment compared to baseline", "setting": "[2]; patients with IBS, alosetron 1 mg b.i.d., last week of 6-week trial, lower = slower colonic transit", "result": "significantly lower"}, {"measurement": "systemic exposure, females compared to males", "setting": "[3]", "result": "slightly greater systemic exposure"}]}]}
